The text below walks through data of patent US20160367708A1, “COMPOSITIONS AND METHODS OF TREATING CANCER” (THE JOHNS HOPKINS UNIVERSITY, priority 2013, published 2016).

For data set [1], the system named is mouse BALB/c CRL2836 cell line or the human HeLa cell line. Briefly: WST-1 cell proliferation assay, ^32P taken up from the medium versus ^32P held in tubes (electron bombardment only). In kind it is cell-based. The following applies: isotope added directly to the medium for 1 day, compared with isotope kept in tubes in the wells; followed up to six days. The protocol:
FIG. 1. A cell proliferation assay using WST-1 was performed to assess the relative cell killing ability of ^32Pmonophosphate that is taken up by cells into the DNA versus that which is not taken up by the cells, but subjected only to electron bombardment.
Measurement of In Vitro Cell Killing by ^32P Radioisotope. Two thousand cells of the mouse BALB/c CRL2836 cell line or the human HeLa cell line were growing in complete medium in wells of a 96-well plate and were exposed to either 0 uCi, 3 uCi or 10 uCi of the [^32P]pyrophosphate or the [^32P]monophosphate radioisotopes. One set of triplicate wells contained medium with the designated form of the isotope, while another set of triplicate wells had the isotope contained in small tubes placed in the wells. […] After a 24 hour exposure time, fresh non-radioactive medium was added and WST-1 proliferation assays were done at several subsequent time points.
To assess the relative cell killing ability of [^32P]monophosphate that is taken up by cells into the DNA versus that of is not taken up by the cells, but subjected only to electron bombardment, a cell proliferation assay using WST-1 was undertaken (FIG. 1). […]
A general note: Tetrazolium dyes change colour on reduction, which living cells bring about.

Data set [2] has as its system BALB/c tumor CRL2836 cells. Briefly: WST-1 cell proliferation assay, [^32P]PO4 versus ^90Y. In kind it is cell-based, mouse. Here is the method: (§1) FIG. 2. Inhibition of cell growth by [^32P]PO4 or [^90Y]. The WST-1 proliferation assay was done to determine the level of cell kill by ^32P or by ^90Y. BALB/c tumor CRL2836 cells or HeLa cells were exposed to 0 Ci, 1 μCi, 2.5 μCi, or 5 μCi in complete medium. After 24 hours, the radioactivity was removed and cells were grown in non-radioactive complete medium. WST-1 cell proliferation assays were done at Days 1, 2, 3, 4, and 5 and all assays were done in triplicate. The mean is shown plus/minus the standard deviation. The student's two-sided t-test determined the P value shown.
(§2) Measurement of in vitro cell killing by ^32P and ^90Y. Two thousand cells of the mouse BALB/c CRL2836 cell line or the human HeLa cell line were grown in complete medium in a 96-well plate and at Day 0 were exposed to either 0, 1, 2.5, or 5 μCi of ^90Y radioisotope or the [^32P]PO4 radioisotope in complete medium. After a 24 h incubation, the radioisotope-containing medium was removed and replaced with non-radioactive complete medium (Day 1). […]
(§3) Statistical analysis. The data from the WST-1 cell proliferation are presented as means±standard deviation and the significance was determined using the unpaired Student's t test. […] The significance was determined using the unpaired Student's t test.

Data set [3] deals with HeLa cells. The data set is described as above. In kind it is cell-based, human. Here is the method: as §1, §2, §3
For data set [4], the system named is HeLa cells. Briefly: H2AX immunostain assay of double-strand DNA breaks, ^32P versus ^90Y. In kind it is cell-based, human. To be noted: 3 μCi for 24 h, Day 1, 2 or 3. The protocol:
FIG. 4. Determination of double-strand DNA breaks in cells caused by exposure to [^32P]PO4 or ^90Y. HeLa cells or mouse BALB/c CRL2836 cells were grown in multiple sections of chamber slides and exposed to 0 μCi or 3 μCi of [^32P]PO4 or ^90Y in complete medium at Day 0. After 24 hours, the radioactivity was removed and cells were grown in non-radioactive complete medium. At Day 1, 2, or 3 the presence of double-strand DNA breaks in the cells was determined by staining for phosphorylated H2-AX histones which indicate double-strand DNA damage.
Assessment of Double-Strand DNA Breaks by ^32P and ^90Y. Ten thousand HeLa cells were seeded in Lab-TekII chamber slides (Thermo Fisher Scientific Inc., Waltham, Mass.). At Day 0 cells were treated with 0 or 3 μCi of ^32P or ^90Y in complete medium. At Day 1, all wells were gently washed and fresh non-radioactive medium was added. At Day 1, Day 2, or Day 3, cells were fixed with 10% formalin at room temperature for 10 min, washed with PBS for two min, and permeabilized with 0.2% Triton X-100 with 10% FBS in PBS for 15 min. After a rinse with PBS, primary mouse anti-human H2AX antibody with 1:1000 dilution (Millipore, Billerica, Mass.) was incubated for 1 h at ambient temperature, and washed twice with PBS for 5 min. […]

The test system of data set [5] is Syngeneic BALB/c CRL2836 tumors. Briefly: ^32P-mediated tumor growth inhibition in syngeneic BALB/c mice. In kind it is in vivo, mouse. The following applies: for inhibition of established syngeneic tumor growth: single IV injection of 5 μCi ten days after tumor cell injection. From the text:
FIG. 5. Inhibition of BALB/c syngeneic tumor growth by [^32P]PO4. Syngeneic BALB/c CRL2836 tumors were established in the rear flanks of BALB/c mice at Day 0. After ten days during which the tumors became well vascularized, mice received an injection of 5 μCi of [^32P]PO4 intra-venously via the tail vein. The tumor volumes are shown as the mean of six tumors plus/minus the standard error of the mean. The student's two-sided t-test determined the P value shown.
Establishment of mouse tumors. Syngeneic BALB/c mouse tumors were established by injecting 2×10^6 BALB/c tumor CRL2836 cells ([…], Manassas, Va.) in a volume of 0.2 mL (50% Matrigel, 50% 1×PBS) subcutaneously in the left rear and right rear flank. All mice were female, 10 weeks of age, and purchased from Charles River Laboratories (Wilmington, Mass.).
^32P-Mediated tumor growth inhibition. After ten days, during which time well-vascularized tumors were established, an injection of 5 μCi of the monophosphate form of ^32P (Perkin-Elmer, Cat. # NEX06000) was injected intravenously via the tail vein in 0.1 mL of 1×HBSS. Six tumors (three animals) were studied in each group. After injection, tumor growth was measured three times per week with a digital caliper and the volume was determined using the formula: volume=½(width)^2×(length).
Statistical analysis. The data from the WST-1 cell proliferation are presented as means±standard deviation and the significance was determined using the unpaired Student's t test. The tumor volumes of the untreated and treated mice are shown as means±SE and no outliers were excluded for any reason. The significance was determined using the unpaired Student's t test.

Data set [6] deals with HeLa cell xenografts. The following applies: applicants' earlier work, cited from earlier work; for inhibition of xenograft tumor growth: nude mice, single low-dose IV injection.
Where [7] appears, read: 24 h exposure to identical amounts of isotope.

`O=[32P](O)(O)O` [[^32P]PO4, ^32P monophosphate]: the “cell death as monitored by the lack of cell growth” value in data set [1] is “far greater levels of cell death”. Also, the “survival rates at Day 5 relative to ^90Y” value in data set [2] (2.5 μCi and 5 μCi doses, Day 5) is “barely half of those produced by ^90Y”; in data set [3] (2.5 μCi and 5 μCi doses, Day 5), “barely half of those produced by ^90Y”. The “cell killing efficiency compared with ^90Y” value in data set [2] (setting [7]) and in data set [3] (setting [7]) was “killed cells more efficiently than did ^90Y” each time. The “double-strand DNA breakage (nuclear staining for phosphorylated H2AX)” value in data set [4] is “significant, time-dependent double-strand DNA breakage”. For the same compound, the “effects on the health of the mice (weight gain, overall activity levels)” value in data set [5] (single IV injection of 5 μCi) is on record as “no apparent detrimental effects”. For the same compound, the “inhibition of established syngeneic tumor growth” value in data set [5] was “significantly inhibited”; in data set [5] (listed as 32P), “strongly and effectively inhibited tumor growth”. In data set [6], the “inhibition of xenograft tumor growth” value was “strongly and effectively inhibited tumor growth”. Also, in data set [6] (xenografted nude mice), the “detrimental effects (weight gain, general activity, overall health)” value is given as “no apparent detrimental effects”.
[^32P]ATP: the “inhibition of xenograft tumor growth” value in data set [6] is given as “significant inhibition”.
